Source: ChEMBL document CHEMBL4483862, “Open-source discovery of chemical leads for next-generation chemoprotective antimalarials” (2018)

Test system: Plasmodium berghei
Experiment: Luciferase/luciferin-expressing antifolate-resistant parasites were used to infect a culture of HepG2 cells that were pre-incubated with compounds. Infected hepatocytes emit light due to the luciferase reaction. Assay results are presented as the percent inhibition of light emission compared to control. […]
Assay type: functional
Conditions: sporozoite; for IC90: read-out: LUCIFERASE INFECTION ASSAY - IC90

Row | Structure (SMILES) | IC90 [µM] | other results
1 | CC1(C)C=Cc2cc(/C(N)=N/OC(=O)c3ccccc3)ccc2O1 | 0.211 | IC50 (FFLUC_HILL_SLOPE 1.86, FFLUC_R_SQUARED 0.604, PBLUC_HILL_SLOPE 0.872, PBLUC_R_SQUARED 0.782, read-out: LUCIFERASE INFECTION ASSAY - IC50): 0.0169 µM
2 | Cc1ccc(-n2c(SCCCC(=O)c3cccs3)nnc2-c2ccccc2)cc1C | > 10 | IC50 (FFLUC_HILL_SLOPE 1.75, FFLUC_R_SQUARED 0.116, read-out: LUCIFERASE INFECTION ASSAY - IC50): > 10 µM
3 | Nc1c(C(=O)Nc2cc(Cl)cc(Cl)c2)sc(Nc2ccccc2)c1C(=O)Nc1ccc(Cl)cc1 | > 10 | IC50 (FFLUC_HILL_SLOPE 1.81, FFLUC_R_SQUARED 0.586, read-out: LUCIFERASE INFECTION ASSAY - IC50): > 10 µM
4 | Cc1csc(-n2c(C)cc(C(=O)CSc3nc(N)cc(N)n3)c2C)n1 | > 10 | IC50 (FFLUC_HILL_SLOPE 1.79, FFLUC_R_SQUARED 0.665, read-out: LUCIFERASE INFECTION ASSAY - IC50): > 10 µM
5 | N#Cc1cc(Cl)ccc1N1C(=O)C=CC1=O | > 14.2 | IC50 (FFLUC_HILL_SLOPE 1.82, FFLUC_R_SQUARED 0.838, PBLUC_HILL_SLOPE 13, PBLUC_R_SQUARED 0.372, read-out: LUCIFERASE INFECTION ASSAY - IC50): 13.6 µM
6 | Cc1ccc(Cl)cc1N1C(=O)C=CC1=O | > 14.9 | IC50 (FFLUC_HILL_SLOPE 1.79, FFLUC_R_SQUARED 0.452, HEPG2TOX_HILL_SLOPE 16.8, HEPG2TOX_R_SQUARED 0.904, PBLUC_HILL_SLOPE 2.51, PBLUC_R_SQUARED 0.543, read-out: LUCIFERASE INFECTION ASSAY - IC50): 6.7 µM
7 | Cc1ccc(-n2c(SC(C)C(=O)NCCc3cccs3)nnc2-c2ccccc2F)cc1 (configuration not stated) | > 10 | IC50 (FFLUC_HILL_SLOPE 1.87, FFLUC_R_SQUARED 0.282, HEPG2TOX_HILL_SLOPE 0.0378, HEPG2TOX_R_SQUARED 0.0131, PBLUC_HILL_SLOPE 12.6, PBLUC_R_SQUARED 0.129, read-out: LUCIFERASE INFECTION ASSAY - IC50): > 10 µM
8 | Oc1c(C(c2ccc(Br)cc2)N2CCCC2)cc(Cl)c2cccnc12 (configuration not stated) | 4.01 | IC50 (FFLUC_HILL_SLOPE 1.86, FFLUC_R_SQUARED 0.64, HEPG2TOX_HILL_SLOPE 1.66, HEPG2TOX_R_SQUARED 0.745, PBLUC_HILL_SLOPE 3.81, PBLUC_R_SQUARED 0.789, read-out: LUCIFERASE INFECTION ASSAY - IC50): 2.25 µM
9 | Cc1cc(C)c(-c2csc(NC(=O)c3ccccc3SCC(=O)NCC3CCCCC3)n2)cc1C | 4.99 | IC50 (FFLUC_HILL_SLOPE 1.8, FFLUC_R_SQUARED 0.211, HEPG2TOX_HILL_SLOPE 0.456, HEPG2TOX_R_SQUARED 0.807, PBLUC_HILL_SLOPE 10.4, PBLUC_R_SQUARED 0.477, read-out: LUCIFERASE INFECTION ASSAY - IC50): 4.04 µM
10 | O=C(Nc1ccccc1N1CCOCC1)c1ccc2noc(-c3ccccc3)c2c1 | > 10 | IC50 (FFLUC_HILL_SLOPE 1.87, FFLUC_R_SQUARED 0.584, PBLUC_HILL_SLOPE 3.85, PBLUC_R_SQUARED 0.483, read-out: LUCIFERASE INFECTION ASSAY - IC50): 7.96 µM
11 | CC1C/C(=C/c2ccc(Cl)cc2)C2=NN(C(=O)c3ccc4ncccc4c3)C(c3ccc(Cl)cc3)C2C1 (configuration not stated) | 6.04 | IC50 (FFLUC_HILL_SLOPE 1.77, FFLUC_R_SQUARED 0.609, HEPG2TOX_HILL_SLOPE 4.89, HEPG2TOX_R_SQUARED 0.557, PBLUC_HILL_SLOPE 71.4, PBLUC_R_SQUARED 0.509, read-out: LUCIFERASE INFECTION ASSAY - IC50): 5.86 µM
12 | O=c1c2ccsc2ncn1CCS(=O)(=O)N1CCN(C(c2ccc(F)cc2)c2ccc(F)cc2)CC1 | > 10 | IC50 (FFLUC_HILL_SLOPE 1.84, FFLUC_R_SQUARED 0.406, PBLUC_HILL_SLOPE 0.263, PBLUC_R_SQUARED 0.514, read-out: LUCIFERASE INFECTION ASSAY - IC50): 1.49 µM
13 | c1coc(-c2c3c(nc4c2oc2ccccc24)CCCCCCCCCC3)c1 | > 10 | IC50 (FFLUC_HILL_SLOPE 1.77, FFLUC_R_SQUARED 0.636, read-out: LUCIFERASE INFECTION ASSAY - IC50): > 10 µM
14 | CSc1sc(-c2nc(C)cs2)c(C)c1-c1ccnc(SCc2c(Cl)cccc2Cl)n1 | > 6.46 | IC50 (FFLUC_HILL_SLOPE 1.79, FFLUC_R_SQUARED 0.514, read-out: LUCIFERASE INFECTION ASSAY - IC50): > 6.46 µM
15 | O=[N+]([O-])c1ccc(N/N=C2\CCSc3ccc(Cl)cc32)cc1 | 9.78 | IC50 (FFLUC_HILL_SLOPE 1.76, FFLUC_R_SQUARED 0.654, HEPG2TOX_HILL_SLOPE 8.57, HEPG2TOX_R_SQUARED 0.177, PBLUC_HILL_SLOPE 41.5, PBLUC_R_SQUARED 0.423, read-out: LUCIFERASE INFECTION ASSAY - IC50): 9.27 µM
16 | O=C(Nc1ccc(N2CCCC2)cn1)c1cccc(Cl)c1 | 0.145 | IC50 (FFLUC_HILL_SLOPE 1.87, FFLUC_R_SQUARED 0.554, HEPG2TOX_HILL_SLOPE 1.22, HEPG2TOX_R_SQUARED 0.956, PBLUC_HILL_SLOPE 1.63, PBLUC_R_SQUARED 0.915, read-out: LUCIFERASE INFECTION ASSAY - IC50): 0.0377 µM

Row | Structure (SMILES) | IC90 [µM] | other results
17 | O=C(NC(c1ccccc1)C1CC1)c1cccc(S(=O)(=O)N2CCN(c3ccc(F)cc3)CC2)c1 (configuration not stated) | > 10 | IC50 (FFLUC_HILL_SLOPE 1.82, FFLUC_R_SQUARED 0.654, PBLUC_HILL_SLOPE 3.16, PBLUC_R_SQUARED 0.76, read-out: LUCIFERASE INFECTION ASSAY - IC50): 7.34 µM
18 | CC(C)NS(=O)(=O)c1ccc(NC(=S)NC(=O)C(c2ccccc2)c2ccccc2)cc1 | > 10 | IC50 (FFLUC_HILL_SLOPE 1.86, FFLUC_R_SQUARED 0.596, HEPG2TOX_HILL_SLOPE 15.1, HEPG2TOX_R_SQUARED 0.768, PBLUC_HILL_SLOPE 9.02, PBLUC_R_SQUARED 0.275, read-out: LUCIFERASE INFECTION ASSAY - IC50): 8.35 µM
19 | CCOc1ccc(-c2n[nH]c(C)c2Oc2ccccc2Br)c(O)c1 | > 8.48 | IC50 (FFLUC_HILL_SLOPE 1.83, FFLUC_R_SQUARED 0.626, read-out: LUCIFERASE INFECTION ASSAY - IC50): > 8.48 µM
20 | CCN(CC)Cc1ccc(OCC(=O)Nc2ccc(Cl)cc2)c2ncccc12 | > 10 | IC50 (FFLUC_HILL_SLOPE 1.82, FFLUC_R_SQUARED 0.795, HEPG2TOX_HILL_SLOPE 1.24, HEPG2TOX_R_SQUARED 0.929, read-out: LUCIFERASE INFECTION ASSAY - IC50): > 10 µM
21 | Cc1cc(O)c(C(C)C)cc1NC1=NC(=O)S/C1=C\c1ccccc1OCC(=O)Nc1ccc(Cl)cc1 | 9.08 | IC50 (FFLUC_HILL_SLOPE 1.8, FFLUC_R_SQUARED 0.548, PBLUC_HILL_SLOPE 29.3, PBLUC_R_SQUARED 0.485, read-out: LUCIFERASE INFECTION ASSAY - IC50): 8.43 µM
22 | O=C1C=C(Nc2ccccc2)/C(=N\c2ccccc2)c2c1oc1ccc(Nc3ccccc3)cc21 | > 10 | IC50 (FFLUC_HILL_SLOPE 1.75, FFLUC_R_SQUARED 0.754, HEPG2TOX_HILL_SLOPE 1.61, HEPG2TOX_R_SQUARED 0.885, read-out: LUCIFERASE INFECTION ASSAY - IC50): > 10 µM
23 | CCOc1ccc(C(C)=O)cc1COC(=O)c1cc(-c2cccc3ccccc23)nc2ccccc12 | > 10 | IC50 (FFLUC_HILL_SLOPE 1.76, FFLUC_R_SQUARED 0.222, read-out: LUCIFERASE INFECTION ASSAY - IC50): > 10 µM
24 | Cc1[nH]c2ccccc2c1C(=O)C(C)OC(=O)c1c2c(nc3ccccc13)/C(=C/c1cccc([N+](=O)[O-])c1)CCC2 (configuration not stated) | > 10 | IC50 (FFLUC_HILL_SLOPE 1.81, FFLUC_R_SQUARED 0.362, PBLUC_HILL_SLOPE 3.43, PBLUC_R_SQUARED 0.216, read-out: LUCIFERASE INFECTION ASSAY - IC50): 6.23 µM
25 | COc1c(Cl)cc([N+](=O)[O-])c(OC)c1C(=O)NC(=O)Nc1cc(Cl)cc(Cl)c1 | > 7.36 | IC50 (FFLUC_HILL_SLOPE 1.87, FFLUC_R_SQUARED 0.625, PBLUC_HILL_SLOPE 21.1, PBLUC_R_SQUARED 0.112, read-out: LUCIFERASE INFECTION ASSAY - IC50): 6.88 µM
26 | CCOC(=O)c1ccc(Oc2c[nH]nc2-c2ccc(OC)cc2O)cc1 | > 9.31 | IC50 (FFLUC_HILL_SLOPE 1.78, FFLUC_R_SQUARED 0.28, read-out: LUCIFERASE INFECTION ASSAY - IC50): > 9.31 µM
27 | Fc1ccc2c(c1)C(Nc1nc(-c3cccnc3)nc3ccccc13)CCS2 (configuration not stated) | 4.27 | IC50 (FFLUC_HILL_SLOPE 1.8, FFLUC_R_SQUARED 0.403, PBLUC_HILL_SLOPE 13.2, PBLUC_R_SQUARED 0.43, read-out: LUCIFERASE INFECTION ASSAY - IC50): 3.62 µM
28 | Cc1ccc(S(=O)(=O)c2nc(/C=C3\N(C)c4ccccc4C3(C)C)sc2Cl)cc1 | > 10 | IC50 (FFLUC_HILL_SLOPE 1.82, FFLUC_R_SQUARED 0.745, read-out: LUCIFERASE INFECTION ASSAY - IC50): > 10 µM
29 | Cc1ccc(COC(=O)c2c(Cl)nc3sccn23)cc1 | 0.397 | IC50 (FFLUC_HILL_SLOPE 1.77, FFLUC_R_SQUARED 0.868, HEPG2TOX_HILL_SLOPE 1.9, HEPG2TOX_R_SQUARED 0.904, PBLUC_HILL_SLOPE 1.95, PBLUC_R_SQUARED 0.73, read-out: LUCIFERASE INFECTION ASSAY - IC50): 0.129 µM
30 | Cc1cc(C(=O)CSc2nc3ccccc3c(=O)n2-c2ccc(OC(F)F)cc2)c(C)n1-c1ccc(F)c(Cl)c1 | > 10 | IC50 (FFLUC_HILL_SLOPE 1.77, FFLUC_R_SQUARED 0.792, PBLUC_HILL_SLOPE 12.5, PBLUC_R_SQUARED 0.0853, read-out: LUCIFERASE INFECTION ASSAY - IC50): 9.61 µM
31 | COc1ccc(-c2cnc(N)c(-c3ccc(O)c(OC)c3)c2)cn1 | 3.7 | IC50 (FFLUC_HILL_SLOPE 1.75, FFLUC_R_SQUARED 0.121, PBLUC_HILL_SLOPE 11, PBLUC_R_SQUARED 0.572, read-out: LUCIFERASE INFECTION ASSAY - IC50): 3.03 µM
